Source: patent publication US10654824B2, “2-azabicyclo[3.1.0]hexan-3-one derivatives and methods of use” (Genentech, Inc., priority 2016, dated 2020)
“Also recorded” adds a separate entry of the source. Each block holds one molecule with its values, some of them ahead of it.

How the values were obtained:
[1] = target: T1, NIK (Homo sapiens, UniProt Q99558); experiment: NIK enzyme inhibition assay (Transcreener ADP, fluorescence polarization); type: biochemical; conditions: for NIK enzyme inhibition, rank among the 4 stereoisomers: in words, four separated stereoisomers of Example 1
T1 construct: made in house; host or cells: baculovirus-infected insect cells
T1 sequence (Q99558 whole entry): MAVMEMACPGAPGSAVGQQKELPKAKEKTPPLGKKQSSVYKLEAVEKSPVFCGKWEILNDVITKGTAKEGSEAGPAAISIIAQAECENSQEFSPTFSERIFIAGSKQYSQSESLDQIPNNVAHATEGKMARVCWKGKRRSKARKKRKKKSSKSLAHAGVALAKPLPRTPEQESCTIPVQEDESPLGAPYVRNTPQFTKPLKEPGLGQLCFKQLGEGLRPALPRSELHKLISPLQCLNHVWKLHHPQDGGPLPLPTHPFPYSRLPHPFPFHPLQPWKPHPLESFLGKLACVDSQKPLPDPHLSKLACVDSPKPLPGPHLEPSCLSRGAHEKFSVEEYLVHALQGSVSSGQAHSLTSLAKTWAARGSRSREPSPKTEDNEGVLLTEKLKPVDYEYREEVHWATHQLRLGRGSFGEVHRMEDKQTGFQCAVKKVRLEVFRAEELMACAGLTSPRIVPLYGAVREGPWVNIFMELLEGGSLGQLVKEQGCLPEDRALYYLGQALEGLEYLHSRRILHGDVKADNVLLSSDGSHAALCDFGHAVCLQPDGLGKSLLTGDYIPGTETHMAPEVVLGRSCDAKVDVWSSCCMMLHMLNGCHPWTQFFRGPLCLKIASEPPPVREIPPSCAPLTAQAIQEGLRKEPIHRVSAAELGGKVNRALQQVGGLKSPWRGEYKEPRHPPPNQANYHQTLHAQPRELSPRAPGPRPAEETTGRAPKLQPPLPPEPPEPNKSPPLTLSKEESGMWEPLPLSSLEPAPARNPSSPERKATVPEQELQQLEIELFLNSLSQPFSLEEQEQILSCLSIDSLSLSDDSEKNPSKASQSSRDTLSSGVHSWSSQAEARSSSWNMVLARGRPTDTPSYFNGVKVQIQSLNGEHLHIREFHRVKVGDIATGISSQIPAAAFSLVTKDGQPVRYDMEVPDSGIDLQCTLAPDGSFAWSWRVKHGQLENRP
Description: The ability of the nuclear factor-kappa B (NF-kB)-inducing kinase (NIK) to catalyze the hydrolysis of adenosine-5′-triphosphate (ATP) was monitored using the Transcreener ADP (adenosine-5′-diphosphate) assay (BellBrook Labs). Purified NIK (0.5 nM) derived from a baculovirus-infected insect cell expression system was incubated with test compounds for 1-3.5 hours in 50 mM 2-[4-(2-hydroxyethyDpiperazin-1-yl]ethanesulfonic acid buffer (pH 7.2) containing 10 mM MgCl2, 2 mM dithiothreitol, 10 μM ATP, 0.01% Triton X-100, 0.1% gamma-globulins from bovine blood, 1% dimethylsulfoxide (DMSO), 7 μg/mL ADP antibody and 5 nM ADP-MR121 633 tracer. Reactions were quenched by the addition of 20 mM 2,2′,2″, 2″′-(ethane-1,2-diyldinitrilo)tetraacetic acid and 0.01% Brij 35. The tracer bound to the antibody was displaced by the ADP generated during the NIK reaction, which causes a decrease in fluorescence polarization that was measured by laser excitation at 633 nm with a Fluorescence Correlation Spectroscopy Plus reader (Evotec AG). Equilibrium dissociation constant (Ki) values for NIK inhibitors are calculated from plots of activity vs. inhibitor concentration using Morrison's quadratic equation that accounts for the potential of tight binding, and by also applying the conversion factor that accounted for competitive inhibition and the concentration of substrate used in the assay relative to its Michaelis constant (Km).

[2] = system: REL-A (p65) nuclear translocation, classical NF-kB signaling, HUVEC; experiment: REL-A HUVEC nuclear translocation assay; type: cell-based; conditions: Homo sapiens, TNF-α 2 ng/mL stimulation
Description: (§1) (2) A second set of cell assays used primary human umbilical vein cells (HUVEC) sourced from Lonza to define the selectivity of NIK inhibitors toward inhibition of classical vs. non-classical NF-kB signaling using high content cellular imaging. For the p52 (non-classical NF-kB signaling) nuclear translocation assay, HUVEC were treated with different concentrations of compounds (0.2% DMSO final) in EBM-2 medium (LONZA) containing 2% fetal bovine serum and then stimulated with 300 ng/mL of an anti-lymphotoxin beta receptor antibody (R&D Systems) for 4.5 hours. In the REL-A nuclear translocation assay, HUVEC were incubated with compounds (0.2% DMSO final) for 4 hours 50 minutes in EBM-2 medium containing 2% fetal bovine serum before stimulating them with 2 ng/mL tumor necrosis factor (TNF)-α (R&D Systems) for 10 minutes. Cells were fixed with 4% paraformaldehyde, permeabilized by adding 0.1% Triton X-100 in phosphate buffered saline, and then were incubated with either 2 μg/mL anti-p52 antibody (Millipore) or 400 ng/mL anti-REL-A (p65) antibody (Santa Cruz Biotechnology). […] Imaging was carried out using an Opera reader (Perkin Elmer) and data were analyzed with the aid of Acapella software (Perkin Elmer). The p52 or REL-A translocation into the nucleus was quantified by the ratio of the nuclear to cytoplasmic signal intensity.

[3] = system: p52 nuclear translocation, non-classical NF-kB signaling, HUVEC; experiment: p52 HUVEC nuclear translocation assay; type: cell-based; conditions: Homo sapiens, anti-lymphotoxin beta receptor antibody 300 ng/mL
Description: as §1

[4] = Liver microsome stability; type: in vitro ADME, human
Description: General. Metabolic stability assays in liver microsomes are conducted with pooled female CD-1 mouse, male Sprague-Dawley rat, male beagle dog, male cynomolgus monkey, and mixed male and female human liver microsomal incubations. The general assay conditions are as follows. Incubation mixtures consisted of liver microsomes (0.5 mg of microsomal protein/ml) and the test compound (1.0 μM) with or without NADPH (1.0 mM) in the potassium phosphate buffer (100 mM; pH 7.4) with a final incubation volume of 0.25 ml. Reactions are initiated by the addition of NADPH or buffer and shaken in a water bath open to the air at 37° C. At times 0, 20, 40, and 60 min, aliquots (50 μl) are removed and added to termination mixtures (100 μl) containing acetonitrile and an internal standard. The samples are then centrifuged for 10 min at 2000 g. The supernatant (90 μl) is removed, combined with 180 μl of water, and analyzed by LC-MS/MS.
Metabolic stability of the test compounds were evaluated in human liver microsomes following known protocols described in Halladay, et al. Drug Metabol. Lett. 2007, 1:67-72.

[5] = Hepatocyte stability; type: in vitro ADME, human
Description: General. Metabolic stability assays in hepatocytes are conducted using cryopreserved pooled female CD-1 mouse, male Sprague-Dawley rat, male beagle dog, male cynomolgus monkey, and mixed male and female human hepatocytes (CellzDirect). Vials of hepatocytes are thawed rapidly in a water bath set at 37° C. and then are diluted with Dulbecco's modified Eagle's medium (DMEM), pH 7.4. Cells are isolated by centrifugation, pooled, and resuspended in DMEM at 1.0 million viable cells/ml. Membrane integrity of the cells is assessed by trypan blue exclusion. The test compound is dissolved in dimethyl sulfoxide at a final concentration of […]. This test compound stock is diluted further to 2 μM in DMEM (125 μl) before the addition of an equal volume of the 10^6 cells/ml cell suspension. The test compound (final incubation concentration of 1.0 μM with 0.1% dimethyl sulfoxide) and cells (final concentration of 0.5×10^6 cells/ml) are incubated at 37° C. in a 95% air/5% CO2 atmosphere for 3 h. Aliquots (50 μl) are removed at 0, 1, 2, and 3 hours and added to termination mixtures (100 μl) containing acetonitrile and an internal standard. […] The supernatant (90 μl) is removed, combined with 180 μof water, and analyzed by LC-MS/MS.
Metabolic stability of the test compounds were evaluated also in human hepatocytes, following protocols described in Hallifax, et al. Drug Metabol. […]

Ki ([1]; purified NIK 0.5 nM, 10 μM ATP, read-out: NIK ADP-FP Ki): 0.4 nM
HLM CL (human liver microsome clearance) ([4]; human liver microsomes): 1.2 mL/min/kg
Hep CL (human hepatocyte clearance) ([5]; human hepatocytes): 4.1 mL/min/kg
stability in the human hepatocyte assay compared with the corresponding comparator compound ([5]; in words, versus comparators C-1, C-3, C-5): better stability
SMILES: CN1C(=O)[C@](O)(C#Cc2cccc(-c3cccc(C(N)=O)n3)c2)[C@H]2C[C@H]21 (single isomer, unassigned) [Compound 1]
NIK enzyme inhibition, rank among the 4 stereoisomers [1]: most potent NIK enzyme inhibitor among the 4 stereoisomers
IC50 [2]: > 5000 nM
IC50 [3]: 93 nM
stability in human liver microsomes compared with the respective pyrrolidinone comparator compound ([4]; in words, versus comparators C-1, C-3, C-4, C-5, C-6): lower clearance; also recorded: better stability

SMILES: CN1C(=O)[C@](O)(C#Cc2cccc(-c3cccc(C(N)=O)n3)c2)[C@@H]2C[C@@H]21 (single isomer, unassigned)
NIK enzyme inhibition, rank among the 4 stereoisomers [1]: second most potent NIK enzyme inhibitor among the 4 stereoisomers

SMILES: CN1C(=O)[C@@](O)(C#Cc2cccc(-c3cccc(C(N)=O)n3)c2)[C@H]2C[C@H]21 (single isomer, unassigned)
NIK enzyme inhibition, rank among the 4 stereoisomers [1]: third most potent NIK enzyme inhibitor among the 4 stereoisomers

NIK enzyme inhibition, rank among the 4 stereoisomers [1]: no measurable inhibition
SMILES: CN1C(=O)[C@@](O)(C#Cc2cccc(-c3cccc(C(N)=O)n3)c2)[C@@H]2C[C@@H]21 (single isomer, unassigned)
